# Assay results reported in patent US8153400B1, “Nucleic acids encoding a mutT domain-containing polypeptide” (Beth Israel Deaconess Medical Center, Inc., priority 1999, dated 2012).
# “Also recorded” adds a separate entry of the source.
# What was measured:
# TrpC7 = target: T1, TrpC7 (Homo sapiens, UniProt O94759, Q1189R); assay: Whole-cell patch-clamp of membrane currents in tetracycline-inducible HEK293 cells expressing FLAG-TrpC7; assay type: cell-based; details: for gating of TrpC7 / induced plasma membrane currents: 100 μM in patch pipette, currents at -80 mV; for gating of TrpC7 / induced plasma membrane currents / gating of TrpC7: after tetracycline induction
# T1 construct: expressed in transfected cells; host or cells: HEK293 cells expressing the tetracycline repressor (pcDNA6/TR); construct in pcDNA4/TO
# Procedure: Wild type and tetracycline-inducible HEK293 FLAG-TrpC7 expressing cells were cultured at 37° C./5% CO2 in DMEM supplemented with 10% FBS and 2 mM glutamine. The medium was supplemented with blasticidin (5 μg/ml; Invitrogen) and zeocin (0.4 mg/ml; Invitrogen). Cells were resuspended in media containing 1 μg/ml tetracycline (Invitrogen) 24 hours before patch-clamp experiments.
# For patch-clamp experiments, coverslips were transferred to the recording chamber and kept in a standard modified Ringer's solution of the following composition (in mM): NaCl 145, KCl 2.8, CaCl2 1, MgCl2 2, glucose 10, Hepes-NaOH 10, pH 7.2. Intracellular pipette-filling solutions contained (in mM): Cs-glutamate 145, NaCl 8, MgCl2 1, Cs-BAPTA 10, pH 7.2 adjusted with CsOH. […] The agonists were dissolved in the standard intracellular solution. Ionomycin (Sigma) was added to the extracellular standard solution.
# Patch-clamp experiments were performed in the tight-seal whole-cell configuration at 21-25° C. High-resolution current recordings were acquired by a computer-based patch-clamp amplifier system (EPC-9, HEKA, Lambrecht, Germany). […] Immediately following establishment of the whole-cell configuration, voltage ramps of 50 ms duration spanning the voltage range of −100 to +100 mV were delivered from a holding potential of 0 mV at a rate of 0.5 Hz over a period of 200 to 400 seconds. All voltages were corrected for a liquid junction potential of 10 mV between external and internal solutions. Currents were filtered at 2.9 kHz and digitized at 100 μs intervals. Capacitive currents and series resistance were determined and corrected before each voltage ramp using the automatic capacitance compensation of the EPC-9. For analysis, the very first ramps were digitally filtered at 2 kHz, pooled and used for leak-subtraction of all subsequent current records. The low-resolution temporal development of currents at a given potential was extracted from the leak-corrected individual ramp current records by measuring the current amplitudes at voltages of −80 mV or +80 mV.
# [1] = test system: non-selective plasma membrane ion channel in ascidian oocytes; details: cited from earlier work
# [2] = target: T2, TrpC7 NUDT9 homology region (Homo sapiens, UniProt O94759); assay: Nudix type enzyme assay (ADP-ribose hydrolysis, liberated orthophosphate), TrpC7 NUDT9 homology region; assay type: biochemical; details: ADP-ribose as substrate
# T2 construct: an NcoI site, an artificial start codon, amino acids 1197-1503, a stop codon, and a 3′ NotI site; Met from artificial start codon (N); made in house; host or cells: E. coli BL21 (DE3), pET-24d
# Procedure: (§1) BL21 (DE3) cells containing the respective expression plasmids were grown at 37° C. in LB broth on a shaker to an A600 of about 0.6 and induced by the addition of isopropyl-β-D-thiogalactopyranoside to a concentration of 1 mM. The cells were allowed to grow for an additional 4 h, harvested, washed by suspension in isotonic saline, centrifuged in pre-weighed centrifuge tubes, and the packed cells were stored at −80° C. […] In the case of NUDT9, enzyme was extracted in the freeze-thaw fraction and ammonium sulfate was added to 35% final concentration. The precipitate was discarded after centrifugation and ammonium sulfate was added to the supernatant to a final concentration of 50%. The precipitate was collected by centrifugation, dissolved then chromatographed, then chromatographed on a gel filtration column (Sephadex G-100). […]
# (§2) Enzyme Assay—Enzyme velocities were quantified by measuring the conversion of a phosphatase-insensitive substrate, ADP-ribose, to the phosphatase-sensitive products, AMP and ribose-5-phosphate. The liberated inorganic orthophosphate was measured by the procedure of Ames and Dubin (Ames, B. N., and Dubin, D. T., J. Biol. Chem. 1960, 235:769-775). […] After 30 min at 37° C., the reaction was terminated by the addition of EDTA and inorganic orthophosphate was measured.
# (§3) Km and Vmax were calculated by non-linear regression analysis of Lineweaver-Burke plots.
# NUDT9 (mutTCCH-1) = target: T3, NUDT9 (mutTCCH-1) (Homo sapiens, UniProt Q9BW91); assay: Nudix type enzyme assay, substrate screen with recombinant NUDT9; assay type: biochemical; details: panel of nucleoside diphosphate derivatives; products AMP and ribose-5-phosphate
# T3 construct: made in house; host or cells: E. coli BL21 (DE3), pET-24d
# T3 sequence (Q9BW91 47-350): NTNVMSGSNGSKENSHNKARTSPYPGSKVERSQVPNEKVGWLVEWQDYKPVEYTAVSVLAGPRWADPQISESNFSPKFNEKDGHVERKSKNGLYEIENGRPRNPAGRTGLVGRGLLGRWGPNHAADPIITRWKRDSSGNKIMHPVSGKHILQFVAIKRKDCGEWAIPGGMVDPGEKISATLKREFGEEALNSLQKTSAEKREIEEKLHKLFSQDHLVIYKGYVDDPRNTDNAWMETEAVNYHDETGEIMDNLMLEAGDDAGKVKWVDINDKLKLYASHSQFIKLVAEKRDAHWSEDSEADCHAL
# Procedure: as §1, §2, §3
# [3] = intracellular perfusion, current magnitude and latency
# T1 sequence (O94759 3-1503 Q1189R): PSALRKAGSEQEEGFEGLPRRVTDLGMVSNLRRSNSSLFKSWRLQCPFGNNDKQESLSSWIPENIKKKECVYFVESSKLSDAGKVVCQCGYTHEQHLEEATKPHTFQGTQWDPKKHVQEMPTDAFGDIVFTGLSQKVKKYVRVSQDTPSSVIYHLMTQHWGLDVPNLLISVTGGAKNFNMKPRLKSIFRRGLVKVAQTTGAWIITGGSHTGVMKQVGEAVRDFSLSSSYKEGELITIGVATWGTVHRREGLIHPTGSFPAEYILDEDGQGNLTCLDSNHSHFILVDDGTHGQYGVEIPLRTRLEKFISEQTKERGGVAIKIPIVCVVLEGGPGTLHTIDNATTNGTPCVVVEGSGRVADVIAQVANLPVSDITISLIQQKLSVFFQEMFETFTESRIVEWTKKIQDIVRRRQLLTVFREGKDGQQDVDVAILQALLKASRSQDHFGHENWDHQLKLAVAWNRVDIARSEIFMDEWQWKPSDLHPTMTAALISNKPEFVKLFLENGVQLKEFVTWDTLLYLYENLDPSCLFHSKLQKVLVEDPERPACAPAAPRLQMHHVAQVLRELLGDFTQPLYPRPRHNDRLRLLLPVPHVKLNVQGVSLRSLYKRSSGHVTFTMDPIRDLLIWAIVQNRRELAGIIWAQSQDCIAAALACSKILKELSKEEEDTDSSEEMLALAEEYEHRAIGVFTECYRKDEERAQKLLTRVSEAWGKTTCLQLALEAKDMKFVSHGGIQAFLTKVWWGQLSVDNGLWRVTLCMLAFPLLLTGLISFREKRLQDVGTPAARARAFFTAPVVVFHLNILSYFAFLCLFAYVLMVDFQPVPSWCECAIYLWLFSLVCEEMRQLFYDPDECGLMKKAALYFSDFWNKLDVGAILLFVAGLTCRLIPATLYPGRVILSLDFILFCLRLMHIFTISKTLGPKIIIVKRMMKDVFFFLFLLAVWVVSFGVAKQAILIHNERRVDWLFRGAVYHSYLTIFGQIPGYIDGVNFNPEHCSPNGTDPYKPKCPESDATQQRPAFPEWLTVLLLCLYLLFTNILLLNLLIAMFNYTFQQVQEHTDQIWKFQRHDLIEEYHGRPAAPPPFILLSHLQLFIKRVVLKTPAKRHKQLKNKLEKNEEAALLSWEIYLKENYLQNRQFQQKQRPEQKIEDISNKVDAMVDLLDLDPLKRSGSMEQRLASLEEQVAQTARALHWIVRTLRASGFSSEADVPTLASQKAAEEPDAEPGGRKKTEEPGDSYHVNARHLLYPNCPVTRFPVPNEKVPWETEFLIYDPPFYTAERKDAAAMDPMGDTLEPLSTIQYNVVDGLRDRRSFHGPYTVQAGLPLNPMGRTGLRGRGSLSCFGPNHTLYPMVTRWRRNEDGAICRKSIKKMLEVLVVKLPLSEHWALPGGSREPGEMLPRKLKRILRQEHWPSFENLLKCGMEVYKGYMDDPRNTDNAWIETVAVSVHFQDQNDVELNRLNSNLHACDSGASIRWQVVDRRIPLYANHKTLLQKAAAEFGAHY
# T2 sequence (O94759 1197-1503): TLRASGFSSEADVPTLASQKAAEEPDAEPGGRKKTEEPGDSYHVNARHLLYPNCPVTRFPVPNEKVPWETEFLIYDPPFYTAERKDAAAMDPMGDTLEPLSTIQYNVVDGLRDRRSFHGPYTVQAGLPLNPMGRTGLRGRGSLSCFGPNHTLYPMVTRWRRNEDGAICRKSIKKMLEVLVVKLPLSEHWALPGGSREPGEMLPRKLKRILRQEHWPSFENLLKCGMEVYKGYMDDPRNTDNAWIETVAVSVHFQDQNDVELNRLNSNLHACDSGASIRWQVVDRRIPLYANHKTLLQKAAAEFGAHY
smiles,measurement,setting,value
Nc1ncnc2c1ncn2[C@@H]1O[C@H](COP(=O)(O)OP(=O)(O)O[C@H]2O[C@H](CO)[C@@H](O)[C@H](O)[C@H]2O)[C@@H](O)[C@H]1O [ADP-glucose],gating of TrpC7 / induced plasma membrane currents,TrpC7,no detectable gating
Nc1ncnc2c1ncn2[C@@H]1O[C@H](COP(=O)(O)OP(=O)(O)O[C@H]2O[C@H](CO)[C@@H](O)[C@H](O)[C@@H]2O)[C@@H](O)[C@H]1O [ADP-mannose],gating of TrpC7 / induced plasma membrane currents,TrpC7,no detectable gating
"Nc1ncnc2c1ncn2[C@@H]1O[C@H](COP(=O)(O)OP(=O)(O)OC[C@H]2OC(O)[C@H](O)[C@@H]2O)[C@@H](O)[C@H]1O (some centres unmarked) [ADP-ribose, Adenosine 5-diphospho (ADP)-ribose]",concentration that gates the currents,[1],≥ 10 nM
same,activity relative to that observed for NUDT9,[2],approximately 1%
same,Vmax (specific activity),[2]; E. coli expressed protein,0.1 μmol/min/mg protein
same,gating of TrpC7 / induced plasma membrane currents,TrpC7,extremely large currents are induced; also recorded: large inward currents
same,currents induced by intracellular perfusion,"TrpC7; 300 μM, tetracycline-induced cells, -80 mV and +80 mV",almost linear cationic currents with slight outward rectification
same,concentration at which TrpC7 activation begins to occur,TrpC7; [3],60-100 μLM
same,concentration at which TrpC7 activation saturates,TrpC7; [3],around 300 μM
same,Kd,"TrpC7; peak current amplitudes at -80 mV, 10 μM to 1 mM, read-out: apparent KD of dose-response curve for gating of TrpC7",90 µM
same,effect on plasma membrane currents,TrpC7; without tetracycline induction (no FLAG-TrpC7 expression),no detectable effect
same,substrate specificity of recombinant NUDT9,NUDT9 (mutTCCH-1),highly specific ADP-ribose pyrophosphatase
"Nc1nc2c(ncn2[C@@H]2O[C@H](COP(=O)(O)OP(=O)(O)O[C@H]3O[C@H](CO)[C@@H](O)[C@H](O)[C@H]3O)[C@@H](O)[C@H]2O)c(=O)[nH]1 [GDP-glucose, guanosine 5-diphospho (GDP)-glucose]",gating of TrpC7 / induced plasma membrane currents,TrpC7,no detectable gating
Nc1nc2c(ncn2[C@@H]2O[C@H](COP(=O)(O)OP(=O)(O)O[C@H]3O[C@H](CO)[C@@H](O)[C@H](O)[C@@H]3O)[C@@H](O)[C@H]2O)c(=O)[nH]1 [GDP-mannose],gating of TrpC7 / induced plasma membrane currents,TrpC7,no detectable gating
"N=c1c2ncn3c2ncn1[C@@H]1O[C@H](COP(=O)(O)OP(=O)(O)OC[C@H]2O[C@@H]3[C@H](O)[C@@H]2O)[C@@H](O)[C@H]1O [cyclic ADP-ribose, cyclic ADP-Ribose]",gating of TrpC7 / induced plasma membrane currents,TrpC7,no detectable gating
"O=P(O)(O)O[C@@H]1[C@H](O)[C@H](O)[C@@H](OP(=O)(O)O)[C@H](OP(=O)(O)O)[C@H]1O [inositol-1,4,5-trisphosphate, inositol 1,4,5-trisphosphate]",gating of TrpC7,TrpC7; 20 μM in patch pipette,no detectable gating
"C[C@H](CCC(=O)O)C[C@H](C)C[C@H](C)C(=O)/C=C(\O)[C@H](C)C[C@H](C)C/C=C/[C@@H](C)[C@@H](O)[C@@H](C)[C@@H](O)C[C@@H]1CC[C@@](C)([C@H]2CC[C@@](C)([C@@H](C)O)O2)O1 [ionomycin, Ionomycin]",gating of TrpC7,"TrpC7; 10 μM, added to the extracellular solution",no detectable gating
